How the values were obtained:
[1] = tested on: B. subtilis 168; experiment: fitness (endpoint OD595 vs no drug) (fraction); higher = more growth
In short: (§1)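 Cultures at OD595 0.01 were dispensed into 384-well plates in TSB, LB Lennox or CY and incubated at 37 °C. Every 30 min for 14 h, OD595 was read and corrected by the first reading. Fitness is the optical density at entry into stationary phase relative to the robust mean of no-drug control wells, capped at 1.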

[2] = tested on: S. aureus Newman; experiment: as above
In short: as §1

[3] = tested on: S. pneumoniae D39V; experiment: Bliss interaction score (quartile over a dose matrix) (fitness difference); higher = more antagonism (negative = synergy)
In short: (§2)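 Fitness here means normalised growth, inferred for single drugs from the combination data. Growth was OD595 at entry into stationary phase, divided by the plate's robust no-drug mean and capped at 1. The Bliss score is observed minus expected fitness, with the expectation being the product, and its quartiles span technical, biological and donor/recipient replicates.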

[4] = tested on: S. aureus DSM 20231; experiment: as above
In short: as §2

[5] = tested on: B. subtilis 168; experiment: as above
In short: as §2

[6] = tested on: S. aureus Newman; experiment: as above
In short: as §2

[7] = tested on: S. pneumoniae D39V; experiment: fitness (endpoint OD595 vs no drug) (fraction); higher = more growth
In short: as §1
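For Bliss interaction score (quartile over a dose matrix) in this document: first quartile when negative (synergy) and third quartile when positive (antagonism).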

CC[C@H](C)[C@H](N)C1=N[C@H](C(=O)N[C@@H](CC(C)C)C(=O)N[C@H](CCC(=O)O)C(=O)N[C@H](C(=O)N[C@H]2CCCCNC(=O)[C@H](CC(N)=O)NC(=O)[C@@H](CC(=O)O)NC(=O)[C@H](Cc3cnc[nH]3)NC(=O)[C@@H](Cc3ccccc3)NC(=O)[C@H]([C@@H](C)CC)NC(=O)[C@@H](CCCN)NC2=O)[C@@H](C)CC)CS1 [Bacitracin] + O=C(O[C@@H]1Cc2c(O)cc(O)cc2O[C@@H]1c1cc(O)c(O)c(O)c1)c1cc(O)c(O)c(O)c1 [EGCG]
fitness, main component drawn
Settings	first compound 18.75 µg/mL	first compound 37.5 µg/mL	first compound 75 µg/mL	first compound 150 µg/mL
[1], partner 6.25 µg/mL	–	0.876	0.885	0.827
[1], partner 12.5 µg/mL	–	–	–	0.562
[2], partner 12.5 µg/mL	0.73	0.43	0.0108	–
[2], partner 25 µg/mL	0.632	0.283	0.0073	–
[2], partner 50 µg/mL	0.444	0.192	0.0184	–

main component drawn
Settings	Bliss interaction score
[3]	-0.0707
[4]	-0.0223
[5]	0.0767
[6]	0.124

CN[C@@H]1[C@H](O)[C@H](NC)[C@H]2O[C@@]3(O)C(=O)C[C@@H](C)O[C@H]3O[C@@H]2[C@H]1O [Spectinomycin] + CN(C)c1cc(NC(=O)CNC(C)(C)C)c(O)c2c1C[C@H]1C[C@H]3[C@H](N(C)C)C(O)=C(C(N)=O)C(=O)[C@@]3(O)C(O)=C1C2=O [Tigecycline]
fitness
Settings	first compound 2 µg/mL	first compound 4 µg/mL	first compound 8 µg/mL	first compound 16 µg/mL
[1], partner 0.039 µg/mL	0.976	≥ 1	0.978	–
[1], partner 0.078 µg/mL	0.959	0.968	0.927	–
[1], partner 0.156 µg/mL	1	≥ 1	0.889	–
[2], partner 0.039 µg/mL	–	0.912	0.918	0.904
[2], partner 0.078 µg/mL	–	0.954	0.928	0.908
[2], partner 0.156 µg/mL	–	0.938	0.961	0.929
[7], partner 0.65 µg/mL	–	0.951	0.896	0.747
[7], partner 1.3 µg/mL	–	0.981	0.905	0.788
[7], partner 2.6 µg/mL	–	0.941	0.896	0.761

fitness, one replicate
Settings	partner 0.039 µg/mL	partner 0.078 µg/mL	partner 0.125 µg/mL	partner 0.156 µg/mL	partner 0.25 µg/mL	partner 0.5 µg/mL
[1], first compound 2 µg/mL	–	–	≥ 1	–	0.994	0.937
[1], first compound 4 µg/mL	–	–	≥ 1	–	0.944	≥ 1
[1], first compound 8 µg/mL	–	–	0.941	–	0.931	≥ 1
[2], first compound 32 µg/mL	0.592	0.585	–	0.603	–	–
[2], first compound 64 µg/mL	0.105	0.0894	–	0.1	–	–

Settings	Bliss interaction score
[3]	0.0451
[4]	-0.0602
[5]	0.043
[6]	0.0622

CN[C@@H]1[C@H](O)[C@H](NC)[C@H]2O[C@@]3(O)C(=O)C[C@@H](C)O[C@H]3O[C@@H]2[C@H]1O [Spectinomycin] + CN[C@@H]1[C@H](O[C@H]2[C@H](O[C@H]3[C@H](O)[C@@H](O)[C@H](N=C(N)N)[C@@H](O)[C@@H]3N=C(N)N)O[C@@H](C)[C@]2(O)C=O)O[C@@H](CO)[C@H](O)[C@H]1O [Streptomycin]
fitness
Settings	first compound 2 µg/mL	first compound 4 µg/mL	first compound 8 µg/mL	first compound 16 µg/mL
[1], partner 2 µg/mL	0.928	0.973	0.894	–
[1], partner 4 µg/mL	–	–	0.623	–
[1], partner 8 µg/mL	0.148	0.0533	0.0588	–
[2], partner 1 µg/mL	–	0.956	0.943	0.906
[2], partner 2 µg/mL	–	0.926	0.975	–
[7], partner 2 µg/mL	–	0.946	0.89	–
[7], partner 4 µg/mL	–	0.952	0.878	0.83
[7], partner 8 µg/mL	–	0.921	0.89	0.822

one replicate
Settings	fitness
[2], first compound 16 µg/mL, partner 8 µg/mL	0.0211
[2], first compound 32 µg/mL, partner 2 µg/mL	0.455
[2], first compound 32 µg/mL, partner 4 µg/mL	0.342
[2], first compound 32 µg/mL, partner 8 µg/mL	0.0569
[2], first compound 64 µg/mL, partner 2 µg/mL	0.0619
[2], first compound 64 µg/mL, partner 4 µg/mL	0.0473
[2], first compound 64 µg/mL, partner 8 µg/mL	0.0327
[7], first compound 4 µg/mL, partner 16 µg/mL	0.882
[7], first compound 8 µg/mL, partner 16 µg/mL	0.842
[7], first compound 16 µg/mL, partner 2 µg/mL	0.84
[7], first compound 16 µg/mL, partner 16 µg/mL	0.705

Settings	Bliss interaction score
[3]	0.0931
[4]	0.126
[5]	0.0835
[6]	0.0625

CN[C@@H]1[C@H](O[C@H]2[C@H](O[C@H]3[C@H](O)[C@@H](O)[C@H](N=C(N)N)[C@@H](O)[C@@H]3N=C(N)N)O[C@@H](C)[C@]2(O)C=O)O[C@@H](CO)[C@H](O)[C@H]1O [Streptomycin] + CC1=C\[C@@H](O)CC(=O)Cc2nc(co2)C(=O)N2CCC=C2C(=O)O[C@H](C(C)C)[C@H](C)/C=C/C(=O)NC\C=C\1 [Virginiamycin M1]
fitness, one replicate
Settings	partner 0.15 µg/mL	partner 0.3 µg/mL	partner 0.5 µg/mL	partner 1 µg/mL	partner 2 µg/mL
[2], first compound 2 µg/mL	–	–	0.804	0.911	0.812
[2], first compound 4 µg/mL	–	–	0.865	0.86	0.82
[2], first compound 8 µg/mL	–	–	0.811	0.845	0.708
[7], first compound 2 µg/mL	0.928	0.912	–	–	–
[7], first compound 4 µg/mL	0.925	0.929	–	–	–
[7], first compound 8 µg/mL	0.917	0.941	–	–	–
[7], first compound 16 µg/mL	–	–	0.866	0.844	0.776

fitness
Settings	first compound 1 µg/mL	first compound 2 µg/mL	first compound 4 µg/mL	first compound 8 µg/mL
[1], partner 0.0625 µg/mL	–	0.962	–	0.0325
[1], partner 0.125 µg/mL	–	0.966	0.429	0.0265
[1], partner 0.25 µg/mL	–	≥ 1	0.453	0.0334
[2], partner 0.0625 µg/mL	1	0.879	–	–
[2], partner 0.125 µg/mL	0.996	0.891	–	–
[2], partner 0.25 µg/mL	0.978	0.916	–	–
[7], partner 0.5 µg/mL	–	0.977	0.998	0.931
[7], partner 1 µg/mL	–	0.955	0.99	0.884
[7], partner 2 µg/mL	–	0.917	0.944	0.921

Settings	Bliss interaction score
[3]	0.0533
[4]	-0.161
[5]	-0.124
[6]	0.0782

CN[C@@H]1[C@H](O[C@H]2[C@H](O[C@H]3[C@H](O)[C@@H](O)[C@H](N=C(N)N)[C@@H](O)[C@@H]3N=C(N)N)O[C@@H](C)[C@]2(O)C=O)O[C@@H](CO)[C@H](O)[C@H]1O [Streptomycin] + CN[C@H](CC(C)C)C(=O)N[C@H]1C(=O)N[C@@H](CC(N)=O)C(=O)N[C@H]2C(=O)N[C@H]3C(=O)N[C@H](C(=O)N[C@H](C(=O)O)c4cc(O)cc(O)c4-c4cc3ccc4O)[C@H](O)c3ccc(c(Cl)c3)Oc3cc2cc(c3O[C@@H]2O[C@H](CO)[C@@H](O)[C@H](O)[C@H]2O[C@H]2C[C@](C)(N)[C@H](O)[C@H](C)O2)Oc2ccc(cc2Cl)[C@H]1O [Vancomycin]
fitness
Settings	first compound 1 µg/mL	first compound 2 µg/mL	first compound 4 µg/mL	first compound 8 µg/mL
[2], partner 0.1875 µg/mL	0.959	0.941	–	–
[2], partner 0.375 µg/mL	0.952	0.946	–	–
[2], partner 0.75 µg/mL	0.978	0.944	–	–
[7], partner 0.03125 µg/mL	–	0.978	0.956	0.941
[7], partner 0.0625 µg/mL	–	0.921	0.969	0.913
[7], partner 0.125 µg/mL	–	0.942	0.942	–
[7], partner 0.25 µg/mL	–	–	0.704	0.691
[7], partner 0.5 µg/mL	–	–	0.0741	0.0434

fitness, [7], one replicate
Settings	partner 0.125 µg/mL	partner 0.25 µg/mL	partner 0.5 µg/mL
first compound 2 µg/mL	–	0.422	0.0318
first compound 16 µg/mL	0.825	0.112	0.0914

Settings	Bliss interaction score
[3]	0.088
[4]	0.0918
[5]	-0.0393
[6]	0.055

CN[C@@H]1[C@H](O[C@H]2[C@H](O[C@H]3[C@H](O)[C@@H](O)[C@H](N=C(N)N)[C@@H](O)[C@@H]3N=C(N)N)O[C@@H](C)[C@]2(O)C=O)O[C@@H](CO)[C@H](O)[C@H]1O [Streptomycin] + Cn1nnc(-c2ccc(-c3ccc(N4C[C@H](CO)OC4=O)cc3F)cn2)n1 [Tedizolid]
fitness
Settings	partner 0.03125 µg/mL	partner 0.0625 µg/mL	partner 0.125 µg/mL	partner 0.25 µg/mL	partner 0.5 µg/mL
[2], first compound 1 µg/mL	–	0.928	0.767	–	–
[7], first compound 2 µg/mL	0.896	0.952	0.811	–	–
[7], first compound 4 µg/mL	0.898	0.886	0.788	0.739	0.336
[7], first compound 8 µg/mL	0.893	0.912	0.829	0.732	0.353

fitness, [7], one replicate
Settings	partner 0.125 µg/mL	partner 0.25 µg/mL	partner 0.5 µg/mL
first compound 2 µg/mL	–	0.748	0.373
first compound 16 µg/mL	0.695	0.531	0.236

Settings	Bliss interaction score
[3]	-0.057
[4]	0.155
[5]	0.189
[6]	-0.188

Source: the supplement of paper PMC10627819
